Data on 20 molecules can be found in patent publication US12226412B2, “Heteroaryl-ketone fused azadecalin glucocorticoid receptor modulators” (Corcept Therapeutics, Inc., priority 2012, dated 2025).

Experiment [1] relates to induction of TAT by dexamethasone in HepG2 cells. Put plainly: HepG2 tyrosine aminotransferase (TAT) assay. The format is cell-based, human. The settings on record: HepG2 cells, challenge of 100 nM dexamethasone; Ki from IC50 by Cheng and Prusoff equation.
In experiment [2] the target is T1, human recombinant GR (Homo sapiens, UniProt P04150).
T1 construct: purchased PanVera P2812
T1 sequence (P04150 1-777): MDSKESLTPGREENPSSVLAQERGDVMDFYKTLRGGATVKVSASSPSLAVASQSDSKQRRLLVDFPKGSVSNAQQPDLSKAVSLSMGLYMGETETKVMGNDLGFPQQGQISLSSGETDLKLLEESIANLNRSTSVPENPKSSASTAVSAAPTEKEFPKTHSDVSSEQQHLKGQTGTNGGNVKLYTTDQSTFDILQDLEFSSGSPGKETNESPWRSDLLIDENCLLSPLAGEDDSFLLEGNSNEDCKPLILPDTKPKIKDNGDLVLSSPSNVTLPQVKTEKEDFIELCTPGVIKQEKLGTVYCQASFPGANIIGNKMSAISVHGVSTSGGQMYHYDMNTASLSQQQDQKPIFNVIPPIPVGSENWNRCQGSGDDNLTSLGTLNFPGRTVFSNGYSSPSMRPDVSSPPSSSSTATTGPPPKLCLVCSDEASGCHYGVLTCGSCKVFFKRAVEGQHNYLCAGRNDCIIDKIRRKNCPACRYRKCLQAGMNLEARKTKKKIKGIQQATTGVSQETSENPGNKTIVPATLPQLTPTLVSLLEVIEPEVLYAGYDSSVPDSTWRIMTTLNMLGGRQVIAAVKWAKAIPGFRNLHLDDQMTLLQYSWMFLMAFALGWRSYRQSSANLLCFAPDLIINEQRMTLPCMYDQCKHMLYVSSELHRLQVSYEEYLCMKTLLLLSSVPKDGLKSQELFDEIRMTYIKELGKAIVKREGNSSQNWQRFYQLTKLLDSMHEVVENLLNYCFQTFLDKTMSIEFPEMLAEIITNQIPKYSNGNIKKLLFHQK
Briefly: Human glucocorticoid receptor (GR) fluorescence polarisation (FP) binding assay. The conditions noted are these: human recombinant GR, fluorescence polarisation binding assay; read-out: GR binding. An outline of the steps:
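Competition fluorescence polarisation: 0.5 nM GS Red labelled glucocorticoid and 1 nM recombinant human GR with 8-point half-log compound series, 1% DMSO, 4 h room temperature, potassium phosphate pH 7.4 buffer with molybdate, EDTA, DTT. Affinity derived from the drop in polarisation, normalised to blank wells.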

On to `Cc1ccnc(C(=O)[C@]23Cc4cnn(-c5ccc(F)cc5)c4C=C2CCN(S(=O)(=O)c2cc(F)cc(F)c2)C3)c1` [Example 11W, (R)-(6-((3,5-difluorophenyl)sulfonyl)-1-(4-fluorophenyl)-4,4a,5,6,7,8-hexahydro-1H-pyrazolo[3,4-g]isoquinolin-4a-yl)(4-methylpyridin-2-yl)methanone], for which the Ki was below 20 nM in experiment [1] and below 0.5 nM in experiment [2].
As to `Cc1ccnc(C(=O)[C@]23Cc4cnn(-c5ccc(F)cc5)c4C=C2CCN(S(=O)(=O)c2cc(F)c(F)c(F)c2)C3)c1` [Example 11X, (R)-(1-(4-fluorophenyl)-6-((3,4,5-trifluorophenyl)sulfonyl)-4,4a,5,6,7,8-hexahydro-1H-pyrazolo[3,4-g]isoquinolin-4a-yl)(4-methylpyridin-2-yl)methanone], the Ki in experiment [1] was below 20 nM; in experiment [2], below 0.5 nM.
As for `CS(=O)(=O)c1cccc(S(=O)(=O)N2CCC3=Cc4c(cnn4-c4ccc(F)cc4)C[C@]3(C(=O)c3ccccn3)C2)c1` [Example 11Y, (R)-(1-(4-fluorophenyl)-6-((3-(methylsulfonyl)phenyl)sulfonyl)-4,4a,5,6,7,8-hexahydro-1H-pyrazolo[3,4-g]isoquinolin-4a-yl)(pyridin-2-yl)methanone], the Ki in experiment [1] is 20 to 100 nM; in experiment [2], below 0.5 nM.
Consider `O=C(c1nccs1)[C@]12Cc3cnn(-c4ccc(F)cc4)c3C=C1CCN(S(=O)(=O)c1cccc(C(F)(F)F)c1)C2` [Example 12, (R)-(1-(4-fluorophenyl)-6-((3-(trifluoromethyl)phenyl)sulfonyl)-4,4a,5,6,7,8-hexahydro-1H-pyrazolo[3,4-g]isoquinolin-4a-yl)(thiazol-2-yl)methanone], for which the Ki in experiment [1] was below 20 nM; in experiment [2], below 0.5 nM.
The matching figures for `Cc1cccc(S(=O)(=O)N2CCC3=Cc4c(cnn4-c4ccc(F)cc4)C[C@]3(C(=O)c3nccs3)C2)c1` [Example 12A, (R)-(1-(4-fluorophenyl)-6-(m-tolylsulfonyl)-4,4a,5,6,7,8-hexahydro-1H-pyrazolo[3,4-g]isoquinolin-4a-yl)(thiazol-2-yl)methanone]: below 20 nM and below 0.5 nM.
In the case of `COc1cccc(S(=O)(=O)N2CCC3=Cc4c(cnn4-c4ccc(F)cc4)C[C@]3(C(=O)c3nccs3)C2)c1` [Example 12B, (R)-(1-(4-fluorophenyl)-6-((3-methoxyphenyl)sulfonyl)-4,4a,5,6,7,8-hexahydro-1H-pyrazolo[3,4-g]isoquinolin-4a-yl)(thiazol-2-yl)methanone], the figures for the Ki in experiment [1] and in experiment [2] were 20 to 100 nM and 0.5 to 1 nM, respectively.
As to `Cc1ccc(S(=O)(=O)N2CCC3=Cc4c(cnn4-c4ccc(F)cc4)C[C@]3(C(=O)c3nccs3)C2)cc1F` [Example 12C, (R)-(6-((3-fluoro-4-methylphenyl)sulfonyl)-1-(4-fluorophenyl)-4,4a,5,6,7,8-hexahydro-1H-pyrazolo[3,4-g]isoquinolin-4a-yl)(thiazol-2-yl)methanone], the results for the Ki in experiment [1] and in experiment [2] were 20 to 100 nM and below 0.5 nM, respectively.
Turning to `O=C(c1nccs1)[C@]12Cc3cnn(-c4ccc(F)cc4)c3C=C1CCN(S(=O)(=O)c1ccccc1)C2` [Example 12D, (R)-(1-(4-fluorophenyl)-6-(phenylsulfonyl)-4,4a,5,6,7,8-hexahydro-1H-pyrazolo [3,4-g]isoquinolin-4a-yl)(thiazol-2-yl)methanone], the Ki in experiment [1] is below 20 nM; in experiment [2], below 0.5 nM.
For `O=C(c1nccs1)[C@]12Cc3cnn(-c4ccc(F)cc4)c3C=C1CCN(S(=O)(=O)c1cccc(Cl)c1)C2` [Example 12E, (R)-(6-((3-chlorophenyl)sulfonyl)-1-(4-fluorophenyl)-4,4a,5,6,7,8-hexahydro-1H-pyrazolo[3,4-g]isoquinolin-4a-yl)(thiazol-2-yl)methanone] the same measures were 20 to 100 nM and below 0.5 nM.
With `Cc1ccc(C(=O)[C@]23Cc4cnn(-c5ccc(F)cc5)c4C=C2CCN(S(=O)(=O)c2cccc(C)c2)C3)nc1` [Example 12F, (R)-(1-(4-fluorophenyl)-6-(m-tolylsulfonyl)-4,4a,5,6,7,8-hexahydro-1H-pyrazolo [3,4-g]isoquinolin-4a-yl)(5-methylpyridin-2-yl)methanone], the Ki was below 20 nM in experiment [1] and below 0.5 nM in experiment [2].
Consider `Cc1cccc(S(=O)(=O)N2CCC3=Cc4c(cnn4-c4ccc(F)cc4)C[C@]3(C(=O)c3cc(C)ccn3)C2)c1` [Example 12G, (R)-(1-(4-fluorophenyl)-6-(m-tolylsulfonyl)-4,4a,5,6,7,8-hexahydro-1H-pyrazolo[3,4-g]isoquinolin-4a-yl)(4-methylpyridin-2-yl)methanone], for which the Ki in experiment [1] was below 20 nM; in experiment [2], below 0.5 nM.
For `Cc1cccc(S(=O)(=O)N2CCC3=Cc4c(cnn4-c4ccc(F)cc4)C[C@]3(C(=O)c3cccc(C)n3)C2)c1` [Example 12H, (R)-(1-(4-fluorophenyl)-6-(m-tolylsulfonyl)-4,4a,5,6,7,8-hexahydro-1H-pyrazolo[3,4-g]isoquinolin-4a-yl)(6-methylpyridin-2-yl)methanone] the same measures were below 20 nM and below 0.5 nM.
On to `O=C(c1nccs1)[C@]12Cc3cnn(-c4ccc(F)cc4)c3C=C1CCN(S(=O)(=O)c1ccc(F)c(C(F)(F)F)c1)C2` [Example 12I, (R)-(6-((4-fluoro-3-(trifluoromethyl)phenyl)sulfonyl)-1-(4-fluorophenyl)-4,4a,5,6,7,8-hexahydro-1H-pyrazolo[3,4-g]isoquinolin-4a-yl)(thiazol-2-yl)methanone], for which the Ki in experiment [1] is 20 to 100 nM; in experiment [2], below 0.5 nM.
For the molecule `O=C(c1nccs1)[C@]12Cc3cnn(-c4ccc(F)cc4)c3C=C1CCN(S(=O)(=O)c1cc(F)c(F)c(F)c1)C2` [Example 12J, (R)-(1-(4-fluorophenyl)-6-((3,4,5-trifluorophenyl)sulfonyl)-4,4a,5,6,7,8-hexahydro-1H-pyrazolo[3,4-g]isoquinolin-4a-yl)(thiazol-2-yl)methanone], the figures for the Ki in experiment [1] and in experiment [2] were 20 to 100 nM and below 0.5 nM, respectively.
Take `O=C(c1nccs1)[C@]12Cc3cnn(-c4ccc(F)cc4)c3C=C1CCN(S(=O)(=O)c1ccc(C(F)(F)F)c(F)c1)C2` [Example 12K, (R)-(6-((3-fluoro-4-(trifluoromethyl)phenyl)sulfonyl)-1-(4-fluorophenyl)-4,4a,5,6,7,8-hexahydro-1H-pyrazolo[3,4-g]isoquinolin-4a-yl)(thiazol-2-yl)methanone]: the Ki was 20 to 100 nM in experiment [1] and below 0.5 nM in experiment [2].
In the case of `Cc1cnc(C(=O)[C@]23Cc4cnn(-c5ccc(F)cc5)c4C=C2CCN(S(=O)(=O)c2cccc(C(F)(F)F)c2)C3)s1` [Example 12L, (R)-(1-(4-fluorophenyl)-6-((3-(trifluoromethyl)phenyl)sulfonyl)-4,4a,5,6,7,8-hexahydro-1H-pyrazolo[3,4-g]isoquinolin-4a-yl)(5-methylthiazol-2-yl)methanone], the Ki was below 20 nM in experiment [1] and below 0.5 nM in experiment [2].
`Cc1csc(C(=O)[C@]23Cc4cnn(-c5ccc(F)cc5)c4C=C2CCN(S(=O)(=O)c2cccc(C(F)(F)F)c2)C3)n1` [Example 12M, (R)-(1-(4-fluorophenyl)-6-((3-(trifluoromethyl)phenyl)sulfonyl)-4,4a,5,6,7,8-hexahydro-1H-pyrazolo[3,4-g]isoquinolin-4a-yl)(4-methylthiazol-2-yl)methanone]: the figures for the Ki in experiment [1] and in experiment [2] were 20 to 100 nM and 0.5 to 1 nM, respectively.
The matching figures for `O=C(c1nccs1)[C@]12Cc3cnn(-c4ccc(F)cc4)c3C=C1CCN(S(=O)(=O)c1ccc(Cl)c(Cl)c1)C2` [Example 12N, (R)-(6-((3,4-dichlorophenyl)sulfonyl)-1-(4-fluorophenyl)-4,4a,5,6,7,8-hexahydro-1H-pyrazolo[3,4-g]isoquinolin-4a-yl)(thiazol-2-yl)methanone]: below 20 nM and 0.5 to 1 nM.
On to `O=C(c1nccs1)[C@]12Cc3cnn(-c4ccc(F)cc4)c3C=C1CCN(S(=O)(=O)c1ccc(F)c(F)c1)C2` [Example 12P, (R)-(6-((3,4-difluorophenyl)sulfonyl)-1-(4-fluorophenyl)-4,4a,5,6,7,8-hexahydro-1H-pyrazolo[3,4-g]isoquinolin-4a-yl)(thiazol-2-yl)methanone], for which the results for the Ki in experiment [1] and in experiment [2] were 20 to 100 nM and below 0.5 nM, respectively.
Regarding `Cc1cnc(C(=O)[C@]23Cc4cnn(-c5ccc(F)cc5)c4C=C2CCN(S(=O)(=O)c2ccc(F)c(F)c2)C3)s1` [Example 12Q, (R)-(6-((3,4-difluorophenyl)sulfonyl)-1-(4-fluorophenyl)-4,4a,5,6,7,8-hexahydro-1H-pyrazolo[3,4-g]isoquinolin-4a-yl)(5-methylthiazol-2-yl)methanone], the Ki in experiment [1] is below 20 nM; in experiment [2], above 1 nM.
